Target: T1, stromelysin (Homo sapiens, UniProt P08254)
T1 construct: made in house; host or cells: E. coli
Assay: Determination of stromelysin inhibition (thiopeptide ester substrate cleavage, DTNB, microtiter plate)
Assay type: biochemical
Conditions: not given
Experimental: The efficacy of the compounds of this invention as matrix metalloproteinase inhibitors was determined by measuring the inhibition of stromelysin. The inhibition of stromelysin by the compounds of this invention was determined as follows: Recombinant truncated stromelysin (human sequence) produced in E. coli was prepared by expression and purification of the protein as described by Ye et al., Biochemistry, 1992, 31, 11231-11235. The enzyme was assayed by its cleavage of the thiopeptide ester substrate Ac-Pro-Leu-Gly-[2-mercapto-4-methyl-pentanoyl]-Leu-Gly-OEt described by Weingarten and Feder, Anal. Biochem., 1985, 147, 437-440 (1985), as a substrate of vertebrate collagenase. The reported conditions were modified to allow assays to be carried out in a microtiter plate. Upon hydrolysis of the thioester bond, the released thiol group reacts rapidly with 5,5'-dithio-bis(2-nitrobenzoic acid) (DTNB), producing a yellow color which is measured by a microtiter plate reader set at 405 nm. The rates of cleavage of the substrate by stromelysin in the presence or absence of inhibitors are measured in a 30 min assay at ambient temperature. Solutions of the compounds in DMSO are prepared, and these are diluted at various concentrations into the assay buffer (50 mM MES/NaOH pH 6.5 with 10 mM CaCl2 and 0.2% Pluronic F-68), which is also used for dilution of the enzyme and substrate. The potency of the compounds [IC50 ] are calculated from the inhibition/inhibitor concentration data.

T1 sequence (P08254 100-272 limits assumed): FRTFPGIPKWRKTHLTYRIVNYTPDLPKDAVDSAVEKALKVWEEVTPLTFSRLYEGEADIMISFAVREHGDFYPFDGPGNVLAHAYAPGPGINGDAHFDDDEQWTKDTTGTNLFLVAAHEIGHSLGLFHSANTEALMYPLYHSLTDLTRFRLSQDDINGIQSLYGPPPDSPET

In order of falling IC50:
1. C=CC[C@H](C(=O)NO)[C@@H](CC(C)C)C(=O)NC(Cc1ccccc1)C(=O)c1nccs1 (stereo partly drawn) [Example 26]  220 nM
2. CC(C)C[C@@H](C(=O)N[C@H](Cc1ccccc1)C(=O)c1c[nH]c2ccccc12)[C@H](O)C(=O)NO [Example 13]  99 nM
3. C=CC[C@H](C(=O)NO)[C@@H](CC(C)C)C(=O)NC(Cc1ccccc1)C(=O)c1cccnc1 (stereo partly drawn) [Example 22]  10 nM

Same assay, conditions: recombinant truncated stromelysin (human sequence); thiopeptide ester substrate, pH 6.5, 30 min, ambient temperature; read-out: IC50 (Inhibitory Potencies against Stromelysin)

In order of falling IC50:
1. CC(C)C[C@@H](C(=O)N[C@H](Cc1ccccc1)C(=O)c1c[nH]c2ccccc12)[C@H](O)C(=O)O [Example 11]  93000 nM
2. CC(C)C[C@@H](C(=O)N[C@@H](Cc1ccccc1)C(=O)c1c[nH]c2ccccc12)[C@H](O)C(=O)O [Example 10]  7100 nM
3. CC(C)C[C@H](CC(=O)NO)C(=O)N[C@@H](CC(=O)O)C(=O)c1c[nH]c2ccccc12 [Example 31]  740 nM
4. O=C(c1c[nH]c2ccccc12)[C@H](Cc1ccccc1)NC(=O)[C@@H](CCCc1ccccc1)[C@H](O)C(=O)NO [Example 28]  320 nM
5. CON=C(c1c[nH]c2ccccc12)[C@H](Cc1ccccc1)NC(=O)[C@@H](CC(=O)NO)CC(C)C [Example 30]  320 nM
6. O=C(C[C@H](C(=O)N[C@@H](Cc1ccc(O)cc1)C(=O)c1ccccc1)C1CCCCC1)NO [Example 33]  110 nM
7. CC(C)C[C@@H](C(=O)N[C@@H](Cc1ccccc1)C(=O)c1ccccc1)[C@H](O)C(=O)NO [Example 15]  27 nM
8. C=CC[C@H](C(=O)NO)[C@@H](CC(C)C)C(=O)N[C@@H](Cc1ccccc1)C(C)=O [Example 17]  16 nM
9. Cc1ccc(CCC[C@H](CC(=O)NO)C(=O)N[C@@H](Cc2ccccc2)C(=O)c2c[nH]c3ccccc23)cc1 [Example 6]  12 nM
10. C=CCCC[C@H](C(=O)NO)[C@@H](CCCc1ccc(C)cc1)C(=O)N[C@@H](Cc1ccccc1)C(=O)c1c[nH]c2ccccc12 [Example 8]  8.6 nM
11. C=CCCC[C@H](C(=O)O)[C@@H](CCCc1ccc(C)cc1)C(=O)N[C@@H](Cc1ccccc1)C(=O)c1c[nH]c2ccccc12 [Example 7]  8 nM
12. CC(C)C[C@@H](C(=O)N[C@@H](Cc1ccccc1)C(=O)c1c[nH]c2ccccc12)[C@H](O)C(=O)NO [Example 12]  7.8 nM
13. C=CC[C@H](C(=O)NO)[C@@H](CC(C)C)C(=O)N[C@@H](CC1CCCCC1)C(=O)c1ccccc1 [Example 20]  7.3 nM
14. CC(C)C[C@H](CC(=O)NO)C(=O)N[C@@H](Cc1ccccc1)C(=O)c1c[nH]c2ccccc12 [Example 5]  5.6 nM
15. C=CC[C@H](C(=O)NO)[C@@H](CC(C)C)C(=O)N[C@@H](Cc1ccccc1)C(=O)c1ccccc1 [Example 18]  4.5 nM
16. C=CCCC[C@H](C(=O)NO)[C@@H](CC(C)C)C(=O)N[C@@H](Cc1ccccc1)C(=O)c1c[nH]c2ccccc12 [Example 2]  3.6 nM
17. O=C(c1c[nH]c2ccccc12)[C@H](Cc1ccccc1)NC(=O)[C@H](CCCc1ccccc1)[C@H](O)C(=O)NO [Example 27]  2.7 nM
18. C=CC[C@H](C(=O)NO)[C@@H](CC(C)C)C(=O)N[C@@H](Cc1ccccc1)C(=O)c1ccc[nH]1 [Example 21]  1.7 nM
19. C=CCCC[C@H](C(=O)NO)[C@@H](CC(C)C)C(=O)N[C@@H](Cc1ccc(O)cc1)C(=O)c1ccccc1 [Example 19]  1.5 nM
20. CC(C)C[C@@H](C(=O)N[C@H](C(=O)c1c[nH]c2ccccc12)C(C)(C)C)[C@H](O)C(=O)NO [Example 14]  1.2 nM
21. C=CC[C@H](C(=O)NO)[C@@H](CC(C)C)C(=O)N[C@H](C(=O)c1c[nH]c2ccccc12)C(C)(C)C [Example 9]  1.2 nM

Source: patent US5985911A, “C-terminal ketone inhibitors of matrix metalloproteinases and TNFα secretion” (Abbott Laboratories, priority 1997, dated 1999)
